Measured values published in ChEMBL document CHEMBL1122963, “[3H]Batrachotoxinin A 20 alpha-benzoate binding to voltage-sensitive sodium channels: a rapid and quantitative assay for local anesthetic activity in a variety of drugs” (J Med Chem, 1985).

These compounds were tested against T1, Sodium channel alpha subunits; brain (Types I, II, III) (Homo sapiens, UniProt P35498+Q99250+Q9NY46). Details: Cavia porcellus; Cerebral cortex; at 10 µM.

**Q.** For (-)-BUTACLAMOL, which inhibition is on record?
**A.** Its inhibition is 87.1%.

**Q.** Which inhibition does the source give for `NCC(CC(=O)O)c1ccc(Cl)cc1` (configuration not stated) here?
**A.** The inhibition was 6.2%.

**Q.** How did the inhibition turn out when `O=C1NC(=O)C(c2ccccc2)(c2ccccc2)N1` was run?
**A.** Its inhibition is 18.5%.

**Q.** How did the inhibition turn out when `CC(C)[C@@]1(O)[C@@H](OC(=O)c2cc[nH]c2)[C@@]2(O)[C@]3(C)C[C@@]4(O)O[C@@]5([C@H](O)[C@@H](C)CC[C@]35O)[C@@]2(O)[C@@]41C` was run?
**A.** Its inhibition is 0%.

**Q.** With `CCCCOc1cc(CC2CNC(=O)N2)ccc1OC` (configuration not stated) as the compound, how does the inhibition read?
**A.** Its inhibition is 14.1%.

**Q.** For `CN(C)CCCn1c2c(c3ccccc31)CCCCCC2`, which inhibition is on record?
**A.** Its inhibition is 42.4%.

**Q.** With `COc1ccc(CCN(C)CCCC(C#N)(c2ccc(OC)c(OC)c2)C(C)C)cc1OC` (configuration not stated) as the compound, how does the inhibition read?
**A.** Its inhibition is 74.4%.

**Q.** Which inhibition does the source give for `CCN(CC)CCCN1C(=O)CC2(CCCc3ccccc32)C1=O` (racemic; form 2) [listing 1 of 2 here] here?
**A.** The inhibition was 54.1%.

**Q.** `C=C[C@H]1CN2CC[C@H]1C[C@@H]2[C@@H](O)c1ccnc2ccc(OC)cc12` [QUINIDINE] was tested. Which inhibition did it give?
**A.** Its inhibition is 74.1%.

**Q.** For `C=C[C@H]1CN2CC[C@H]1C[C@H]2[C@H](O)c1ccnc2ccc(OC)cc12` [QUININE], which inhibition is on record?
**A.** The inhibition was 69.3%.

**Q.** Which inhibition does the source give for `NC(=O)N1c2ccccc2C=Cc2ccccc21` here?
**A.** The inhibition was 1.6%.

**Q.** `COC(=O)C1=C(C)NC(C)=C(C(=O)OC)C1c1ccccc1[N+](=O)[O-]` was tested. Which inhibition did it give?
**A.** Its inhibition is 26%.

**Q.** For `CC[N+](CC)(CC)CC`, which inhibition is on record?
**A.** The inhibition was 1.4%.

**Q.** How did the inhibition turn out when `CC/C(=C(/CC)c1ccc(O)cc1)c1ccc(O)cc1` was run?
**A.** Its inhibition is 30.1%.

**Q.** How did the inhibition turn out when `CCCN(CC)C(CC)C(=O)Nc1c(C)cccc1C` (configuration not stated) [ETIDOCAINE] was run?
**A.** Its inhibition is 73.2%.

**Q.** `C[C@H](Cc1ccccc1)Nc1ncnc2c1ncn2[C@@H]1O[C@H](CO)[C@@H](O)[C@H]1O` was tested. Which inhibition did it give?
**A.** Its inhibition is 2.2%.

**Q.** Which inhibition does the source give for `NC[C@H](CC(=O)O)c1ccc(Cl)cc1` here?
**A.** The inhibition was 11.7%.

**Q.** For `CC(=O)Nc1ccc(OCC(O)CNC(C)C)cc1` (configuration not stated), which inhibition is on record?
**A.** The inhibition was 8.4%.

**Q.** `CC(C)NCC(O)c1ccc([N+](=O)[O-])cc1` (configuration not stated) was tested. Which inhibition did it give?
**A.** The inhibition was 7.9%.

**Q.** For `CC(C)(C)NCC(O)COc1cccc2c1CCCC2=O` (configuration not stated), which inhibition is on record?
**A.** The inhibition was 27.3%.

**Q.** With `COc1cc2c3cc1Oc1cc(ccc1O)C[C@@H]1c4c(cc(OC)c(O)c4Oc4ccc(cc4)C[C@@H]3N(C)CC2)CC[N+]1(C)C` as the compound, how does the inhibition read?
**A.** Its inhibition is 3%.

**Q.** With `C=CCC1(C(C)CCC)C(=O)NC(=O)NC1=O` (configuration not stated) as the compound, how does the inhibition read?
**A.** The inhibition was 4.4%.

**Q.** With `COC(=O)[C@H]1[C@H]2C[C@H]3c4[nH]c5ccccc5c4CCN3C[C@H]2CC[C@@H]1O` as the compound, how does the inhibition read?
**A.** Its inhibition is 13.1%.

**Q.** `CCN(CC)CCCN1C(=O)CC2(CCCc3ccccc32)C1=O` (racemic; form 1) [listing 1 of 2 here] was tested. Which inhibition did it give?
**A.** Its inhibition is 25.7%.

**Q.** How did the inhibition turn out when `CCCCOc1cc(C(=O)NCCN(CC)CC)c2ccccc2n1` [DIBUCAINE] was run?
**A.** Its inhibition is 77.4%.

**Q.** `CCC1(c2ccccc2)C(=O)NC(=O)NC1=O` was tested. Which inhibition did it give?
**A.** Its inhibition is 5.4%.

**Q.** With `COc1ccc(CN(CCN(C)C)c2ccccn2)cc1` as the compound, how does the inhibition read?
**A.** The inhibition was 44.5%.

**Q.** For `CN(C)C/C=C(/c1ccc(Br)cc1)c1cccnc1`, which inhibition is on record?
**A.** Its inhibition is 34.6%.

**Q.** For `Cn1c(=O)c2nc(-c3ccccc3)[nH]c2n(C)c1=O`, which inhibition is on record?
**A.** Its inhibition is 10.9%.

**Q.** With `COc1ccc2c3c1O[C@H]1[C@@H](O)C=C[C@H]4[C@@H](C2)N(C)CC[C@@]341` as the compound, how does the inhibition read?
**A.** The inhibition was 5.7%.

**Q.** `COc1cc2c(cc1OC)-c1c/c(=N\c3c(C)cc(C)cc3C)n(C)c(=O)n1CC2` was tested. Which inhibition did it give?
**A.** Its inhibition is 17.4%.

**Q.** For `CC(C)(C)NC[C@H](O)COc1nsnc1N1CCOCC1`, which inhibition is on record?
**A.** Its inhibition is 8%.

**Q.** Which inhibition does the source give for `O=C(CCCN1CCC(O)(c2ccc(Cl)cc2)CC1)c1ccc(F)cc1` here?
**A.** Its inhibition is 85.5%.

**Q.** With `CC(C)CCC[C@@H](C)[C@H]1CC[C@H]2[C@@H]3CC=C4C[C@@H](O)CC[C@]4(C)[C@H]3CC[C@]12C` as the compound, how does the inhibition read?
**A.** Its inhibition is 3.3%.

**Q.** Which inhibition does the source give for `COC(=O)[C@H]1[C@H]2C[C@H]3c4[nH]c5ccccc5c4CCN3C[C@@H]2CC[C@@H]1O` here?
**A.** Its inhibition is 33.7%.

**Q.** `O=C(CCCN1CCC2(CC1)C(=O)NCN2c1ccccc1)c1ccc(F)cc1` [SPIPERONE] was tested. Which inhibition did it give?
**A.** The inhibition was 98.7%.

**Q.** For `CCCCN1CCCCC1C(=O)Nc1c(C)cccc1C` (configuration not stated) [BUPIVACAINE], which inhibition is on record?
**A.** Its inhibition is 63.4%.

**Q.** With `CCCCNc1ccc(C(=O)OCCN(C)C)cc1` as the compound, how does the inhibition read?
**A.** The inhibition was 72%.

**Q.** `O=C(O)c1ccccc1Nc1cccc(C(F)(F)F)c1` was tested. Which inhibition did it give?
**A.** Its inhibition is 26.7%.

These compounds were tested against T1, Sodium channel alpha subunits; brain (Types I, II, III) (assay: Inhibition of binding of Batrachotoxinin [3H]BTX-B to high affinity sites on voltage dependent sodium channels in a vesicular preparation from guinea pig cerebral cortex). Details: not given.
Assay type: tissue-based, Cavia porcellus

**Q.** With `CCN(CC)CCCN1C(=O)CC2(CCCc3ccccc32)C1=O` (racemic; form 1) [listing 2 of 2 here] as the compound, how does the IC50 read?
**A.** Its IC50 is 94 µM.

**Q.** Which IC50 does the source give for `COc1ccc(CCN(C)CCCC2(c3ccc(OC)c(OC)c3)S(=O)(=O)CCCS2(=O)=O)cc1OC` here?
**A.** Its IC50 is 13.5 µM.

**Q.** How did the IC50 turn out when `CCN(CC)CCCN1C(=O)CC2(CCCc3ccccc32)C1=O` (racemic; form 2) [listing 2 of 2 here] was run?
**A.** The IC50 was 12 µM.
